Experimental data as given in patent US20240398805A1, “QUINAZOLINE DERIVED COMPOUNDS AS EGFR INHIBITORS AND THEIR USES THEREOF” (ACCUTAR BIOTECHNOLOGY INC., priority 2021, published 2024).

Tests used:
Format in all cases: cell-based
[1] = test system: HCC827-ASV cells (human EGFR exon 20 insertion mutant A769_D770insASV); test: Cell growth inhibition (CellTiter-Glo, 3 days) in HCC827-ASV; details: 72 h, 3 days after administration
Source text: (§1) 1. Preparation of HCC827-SVD, HCC827-ASV and HCC827-YVMA Cell Lines
(§2) HCC827-ASV and HCC827-YVMA cell lines were generated in the similar approach as HCC827-SVD except that HCC827 cells (ATCC) were first transduced with lentiviral particles expressing codon-optimized human EGFR exon 20 insertion mutant A769_D770insASV and human ERBB2 exon20 insertion mutant A775_G776ins YVMA, respectively.
(§3) 2. Cell Growth Inhibition for HCC827, HCC827-SVD, HCC827-ASV, HCC827-YVMA and A431.
(§4) HCC827(ATCC), HCC827-SVD, HCC827-ASV, HCC827-YVMA were seeded in 96-well plates at 5000 cells/well in 90 μl of RPMI growth medium containing 10% FBS and 1% Penicillin Streptomycin. A431 (ATCC) cells were seed in 96-well plates at 5000 cells/well in 90 μl of DMEM growth medium containing 10% FBS and 1% Penicillin Streptomycin. Cells were incubated at 3700 overnight. The following day, the test compound was administered to the cells by using 1 Ox compound stock solution prepared in growth medium at various concentrations. After administration of the compound, cells were then incubated at 3700 for 3 days. Before CeIlTiter-Glo assay, the plates were equilibrated at room temperature for approximately 10 minutes. 100 ul of CelTiter-Glo® Reagent (Promega) was added to each well. The plates were then incubated at room temperature for 10 minutes and luminescence was recorded by EnSpire plate reader (PerkinElmer).

HCC827 cells = test: Cell growth inhibition (CellTiter-Glo, 3 days) in HCC827; details: Homo sapiens, 72 h, 3 days after administration
Method: as §3, §4

[2] = test system: HCC827-SVD cells (human EGFR exon 20 insertion mutant D770_N771 insSVD); test: Cell growth inhibition (CellTiter-Glo, 3 days) in HCC827-SVD; details: 72 h, 3 days after administration
Method: as §1
HCC827-SVD cell line were generated by first transducing HCC827 cells (ATCC) with lentiviral particles expressing codon-optimized human EGFR exon 20 insertion mutant D770_N771 insSVD, and then selecting under 5 μg/ml purimycin treatment for a week.
The resulting cells were further transduced with lentiviral particles carrying EGFR sgRNA and CAS9 to knockout the endogenous alleles of EGFR, and then selected under 500 μg/ml hygromycin B treatment for two weeks. Single clone was subsequently generated by limiting dilution approach. Endogenous EGFR knockout was confirmed by Sanger sequencing of cell genomic DNA and expression of exogenous mutant EGFR was verified by Western blot analysis.
as §3, §4

[3] = test system: HCC827-YVMA cells (human ERBB2 exon20 insertion mutant A775_G776ins YVMA); test: Cell growth inhibition (CellTiter-Glo, 3 days) in HCC827-YVMA; details: 72 h, 3 days after administration
Source text: as §1, §2, §3, §4

A431 cells = test: Cell growth inhibition (CellTiter-Glo, 3 days) in A431; details: Homo sapiens, A-431, 72 h, 3 days after administration
Method: as §3, §4

SMILES	GI50 [1] [nM]	GI50 (HCC827 cells) [nM]	GI50 [2] [nM]	GI50 [3] [nM]	GI50 (A431 cells) [nM]
C=CC(=O)N1CC[C@H](Nc2cc3c(Nc4ccc(Oc5ccn(-c6cnc(OC)nc6)n5)cc4F)ncnc3cc2OC)C1 [Compound 8, (S)-1-(3-((4-((2-fluoro-4-((1-(2-methoxypyrimidin-5-yl)-1H-pyrazol-3-yl)oxy)phenyl)amino)-7-methoxyquinazolin-6-yl)amino)pyrrolidin-1-yl)prop-2-en-1-one]	100 to 300	100 to 300	30 to 60	30 to 60	300 to 600
C=CC(=O)N1CC[C@@H](Nc2cc3c(Nc4ccc(Oc5ccn(-c6cnc(OC)nc6)n5)cc4F)ncnc3cc2OC)C1 [Compound 9, (R)-1-(3-((4-((2-fluoro-4-((1-(2-methoxypyrimidin-5-yl)-1H-pyrazol-3-yl)oxy)phenyl)amino)-7-methoxyquinazolin-6-yl)amino)pyrrolidin-1-yl)prop-2-en-1-one]	≥ 1000	≥ 1000	≥ 1000	≥ 1000	≥ 1000
C=CC(=O)N1CCC(Nc2cc3c(Nc4ccc(Oc5ccn(-c6ccc(C)cn6)n5)cc4F)ncnc3cc2OC)CC1 [Compound 14]	100 to 300	60 to 100	100 to 300	60 to 100	60 to 100
C=CC(=O)N1CCC(Nc2cc3c(Nc4ccc(Oc5ccn(-c6cc(F)c(C)cn6)n5)cc4F)ncnc3cc2OC)CC1 [Compound 15, 1-(4-((4-((2-fluoro-4-((1-(4-fluoro-5-methylpyridin-2-yl)-1H-pyrazol-3-yl)oxy)phenyl)amino)-7-methoxyquinazolin-6-yl)amino)piperidin-1-yl)prop-2-en-1-one]	100 to 300	100 to 300	100 to 300	60 to 100	100 to 300
COc1cc2ncnc(Nc3ccc(Oc4ccn(-c5cnc(C)c(F)c5)n4)cc3F)c2cc1NC1CCN(C(=O)/C=C/CN(C)C)CC1 [Compound 21, (2E)-4-(dimethylamino)-1-[4-({4-[(2-fluoro-4-{[1-(5-fluoro-6-methylpyridin-3-yl)pyrazol-3-yl]oxy}phenyl)amino]-7-methoxyquinazolin-6-yl}amino)piperidin-1-yl]but-2-en-1-one]	≥ 1000	≥ 1000	≥ 1000	300 to 600	≥ 1000
C=CC(=O)N1CCC(Nc2cc3c(Nc4ccc(Oc5ccnc(-c6cnn(C)c6)c5)cc4F)ncnc3cc2OC)CC1 [Compound 34, 1-(4-((4-((2-fluoro-4-((2-(1-methyl-1H-pyrazol-4-yl)pyridin-4-yl)oxy)phenyl)amino)-7-methoxyquinazolin-6-yl)amino)piperidin-1-yl)prop-2-en-1-one]	60 to 100	600 to 1000	30 to 60	60 to 100	≥ 1000
C=CC(=O)N1CCC(Nc2cc3c(Nc4ccc(Oc5cc(-c6ccc(C)nc6)ccn5)cc4F)ncnc3cc2OC)CC1 [Compound 46, 1-[4-({4-[(2-fluoro-4-{[4-(6-methylpyridin-3-yl)pyridin-2-yl]oxy}phenyl)amino]-7-methoxyquinazolin-6-yl}amino)piperidin-1-yl]prop-2-en-1-one]	60 to 100	100 to 300	30 to 60	< 30	≥ 1000
C=CC(=O)N1CC2(CC(Oc3cc4c(Nc5ccc(Oc6ccn(-c7cnc(OC)nc7)n6)cc5F)ncnc4cc3OC)C2)C1 [Compound 79, 1-(6-((4-((2-fluoro-4-((1-(2-methoxypyrimidin-5-yl)-1H-pyrazol-3-yl)oxy)phenyl)amino)-7-methoxyquinazolin-6-yl)oxy)-2-azaspiro [3.3]heptan-2-yl) prop-2-en-1-one]	≥ 1000	≥ 1000	≥ 1000	≥ 1000	≥ 1000

Now from value to molecule:

GI50 [1] [nM]	GI50 (HCC827 cells) [nM]	GI50 [2] [nM]	GI50 [3] [nM]	GI50 (A431 cells) [nM]	SMILES
< 30	30 to 60	< 30	< 30	300 to 600	C=CC(=O)N1CCC(Nc2cc3c(Nc4ccc(Oc5ccn(-c6cnc(C)c(Cl)c6)n5)cc4F)ncnc3cc2OC)CC1 [Compound 10, 1-(4-((4-((4-((1-(5-chloro-6-methylpyridin-3-yl)-1H-pyrazol-3-yl)oxy)-2-fluorophenyl)amino)-7-methoxyquinazolin-6-yl)amino)piperidin-1-yl)prop-2-en-1-one]
30 to 60	60 to 100	30 to 60	60 to 100	100 to 300	C=CC(=O)N1CCC(Nc2cc3c(Nc4ccc(Oc5ccn(-c6cnc(C)c(C#N)c6)n5)cc4F)ncnc3cc2OC)CC1 [Compound 11, 5-(3-(4-((6-((1-acryloylpiperidin-4-yl)amino)-7-methoxyquinazolin-4-yl)amino)-3-fluorophenoxy)-1H-pyrazol-1-yl)-2-methylnicotinonitrile]
< 30	30 to 60	< 30	< 30	100 to 300	C=CC(=O)N1CCC(Nc2cc3c(Nc4ccc(Oc5ccn(-c6ccc(OC)nc6)n5)cc4F)ncnc3cc2OC)CC1 [Compound 12, 1-(4-((4-((2-fluoro-4-((1-(6-methoxypyridin-3-yl)-1H-pyrazol-3-yl)oxy)phenyl)amino)-7-methoxyquinazolin-6-yl)amino)piperidin-1-yl)prop-2-en-1-one]
< 30	< 30	< 30	< 30	300 to 600	C=CC(=O)N1CCC(Nc2cc3c(Nc4ccc(Oc5ccn(-c6cnc(C)c(F)c6)n5)cc4F)ncnc3cc2OCC)CC1 [Compound 13, 1-(4-((7-ethoxy-4-((2-fluoro-4-((1-(5-fluoro-6-methylpyridin-3-yl)-1H-pyrazol-3-yl)oxy)phenyl)amino)quinazolin-6-yl)amino)piperidin-1-yl)prop-2-en-1-one]
< 30	< 30	< 30	< 30	300 to 600	C=CC(=O)N1CCC(Nc2cc3c(Nc4ccc(Oc5ccn(-c6ccc(C)cn6)n5)c(Cl)c4)ncnc3cc2OC)CC1 [Compound 16]
30 to 60	< 30	30 to 60	< 30	< 30	C=CC(=O)N1CCC(Nc2cc3c(Nc4ccc(Oc5ccn(-c6nc(OC)nc(OC)n6)n5)cc4F)ncnc3cc2OC)CC1 [Compound 31, 1-(4-((4-((4-((1-(4,6-dimethoxy-1,3,5-triazin-2-yl)-1H-pyrazol-3-yl)oxy)-2-fluorophenyl)amino)-7-methoxyquinazolin-6-yl)amino)piperidin-1-yl)prop-2-en-1-one]
< 30	100 to 300	< 30	< 30	≥ 1000	C=CC(=O)N1CCC(Nc2cc3c(Nc4ccc(Oc5ccnc(N6CCOCC6)c5)cc4F)ncnc3cc2OC)CC1 [Compound 35, 1-(4-((4-((2-fluoro-4-((2-morpholinopyridin-4-yl)oxy)phenyl)amino)-7-methoxyquinazolin-6-yl)amino)piperidin-1-yl)prop-2-en-1-one]
< 30	60 to 100	< 30	< 30	300 to 600	C=CC(=O)N1CCC(Nc2cc3c(Nc4ccc(Oc5ccnc(-c6cscn6)c5)cc4F)ncnc3cc2OC)CC1 [Compound 41, 1-(4-((4-((2-fluoro-4-((2-(thiazol-4-yl)pyridin-4-yl)oxy)phenyl)amino)-7-methoxyquinazolin-6-yl)amino)piperidin-1-yl)prop-2-en-1-one]
30 to 60	30 to 60	30 to 60	< 30	100 to 300	C=CC(=O)N1CCC(Nc2cc3c(Nc4ccc(Oc5cc(-c6nc(C)no6)ccn5)cc4F)ncnc3cc2OC)CC1 [Compound 44, 1-(4-((4-((2-fluoro-4-((4-(3-methyl-1,2,4-oxadiazol-5-yl)pyridin-2-yl)oxy)phenyl)amino)-7-methoxyquinazolin-6-yl)amino)piperidin-1-yl)prop-2-en-1-one]
30 to 60	30 to 60	30 to 60	30 to 60	100 to 300	C=CC(=O)N1CCC(Nc2cc3c(Nc4ccc(Oc5nc(-c6cnc(C7CC7)nc6)cs5)cc4F)ncnc3cc2OC)CC1 [Compound 51, 1-(4-((4-((4-((4-(2-cyclopropylpyrimidin-5-yl)thiazol-2-yl)oxy)-2-fluorophenyl)amino)-7-methoxyquinazolin-6-yl)amino)piperidin-1-yl)prop-2-en-1-one]
